Laboratory results reported in ChEMBL document CHEMBL5126608, “Development, Optimization, and In Vivo Validation of New Imidazopyridine Chemotypes as Dual TLR7/TLR9 Antagonists through Activity-Directed Sequential Incorporation of Relevant Structural Subunits” (J Med Chem, 2022).
Converted amounts (≈) assume the structure as drawn.

What was measured:
Toll-like receptor 9 = biological target: T1, Toll-like receptor 9 (Homo sapiens, UniProt Q9NR96); experiment: Antagonist activity at human TLR9 expressed in HEK-blue hTLR9 cells assessed as inhibition of CpGB-induced NFkappaB activation preincubated with compound for 1 hrs followed by CpGB addition and measured next day by SEAP-based spectrophotometry assay; format: cell-based
T1 sequence (Q9NR96 whole entry): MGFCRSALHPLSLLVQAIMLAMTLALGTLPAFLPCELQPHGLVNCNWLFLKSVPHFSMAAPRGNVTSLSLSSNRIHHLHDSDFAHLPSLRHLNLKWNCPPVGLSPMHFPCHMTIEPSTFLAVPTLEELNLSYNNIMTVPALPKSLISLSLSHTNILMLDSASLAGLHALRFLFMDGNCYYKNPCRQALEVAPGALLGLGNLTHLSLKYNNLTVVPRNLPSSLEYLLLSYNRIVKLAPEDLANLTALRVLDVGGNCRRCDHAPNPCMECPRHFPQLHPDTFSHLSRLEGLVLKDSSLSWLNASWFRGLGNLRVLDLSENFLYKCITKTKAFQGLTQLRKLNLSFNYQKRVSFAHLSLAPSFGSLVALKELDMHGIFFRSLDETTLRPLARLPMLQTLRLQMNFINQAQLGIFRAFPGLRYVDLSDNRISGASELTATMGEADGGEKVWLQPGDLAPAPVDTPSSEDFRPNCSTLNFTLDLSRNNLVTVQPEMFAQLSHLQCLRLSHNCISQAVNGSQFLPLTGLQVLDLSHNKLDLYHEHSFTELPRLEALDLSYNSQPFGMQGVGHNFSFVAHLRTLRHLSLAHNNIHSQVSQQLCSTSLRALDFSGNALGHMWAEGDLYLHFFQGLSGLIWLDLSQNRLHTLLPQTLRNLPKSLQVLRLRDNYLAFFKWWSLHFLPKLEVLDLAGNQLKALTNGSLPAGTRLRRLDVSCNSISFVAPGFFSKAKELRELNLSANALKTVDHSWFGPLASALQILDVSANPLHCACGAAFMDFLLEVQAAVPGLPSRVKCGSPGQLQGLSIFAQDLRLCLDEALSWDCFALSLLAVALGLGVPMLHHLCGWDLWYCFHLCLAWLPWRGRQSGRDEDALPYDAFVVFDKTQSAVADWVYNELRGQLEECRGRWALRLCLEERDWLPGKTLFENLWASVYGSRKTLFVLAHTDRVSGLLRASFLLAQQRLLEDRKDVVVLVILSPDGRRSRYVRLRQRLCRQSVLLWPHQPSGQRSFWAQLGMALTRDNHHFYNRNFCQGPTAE

Toll-like receptor 7 = biological target: T2, Toll-like receptor 7 (Homo sapiens, UniProt Q9NYK1)
T2 sequence (Q9NYK1 whole entry): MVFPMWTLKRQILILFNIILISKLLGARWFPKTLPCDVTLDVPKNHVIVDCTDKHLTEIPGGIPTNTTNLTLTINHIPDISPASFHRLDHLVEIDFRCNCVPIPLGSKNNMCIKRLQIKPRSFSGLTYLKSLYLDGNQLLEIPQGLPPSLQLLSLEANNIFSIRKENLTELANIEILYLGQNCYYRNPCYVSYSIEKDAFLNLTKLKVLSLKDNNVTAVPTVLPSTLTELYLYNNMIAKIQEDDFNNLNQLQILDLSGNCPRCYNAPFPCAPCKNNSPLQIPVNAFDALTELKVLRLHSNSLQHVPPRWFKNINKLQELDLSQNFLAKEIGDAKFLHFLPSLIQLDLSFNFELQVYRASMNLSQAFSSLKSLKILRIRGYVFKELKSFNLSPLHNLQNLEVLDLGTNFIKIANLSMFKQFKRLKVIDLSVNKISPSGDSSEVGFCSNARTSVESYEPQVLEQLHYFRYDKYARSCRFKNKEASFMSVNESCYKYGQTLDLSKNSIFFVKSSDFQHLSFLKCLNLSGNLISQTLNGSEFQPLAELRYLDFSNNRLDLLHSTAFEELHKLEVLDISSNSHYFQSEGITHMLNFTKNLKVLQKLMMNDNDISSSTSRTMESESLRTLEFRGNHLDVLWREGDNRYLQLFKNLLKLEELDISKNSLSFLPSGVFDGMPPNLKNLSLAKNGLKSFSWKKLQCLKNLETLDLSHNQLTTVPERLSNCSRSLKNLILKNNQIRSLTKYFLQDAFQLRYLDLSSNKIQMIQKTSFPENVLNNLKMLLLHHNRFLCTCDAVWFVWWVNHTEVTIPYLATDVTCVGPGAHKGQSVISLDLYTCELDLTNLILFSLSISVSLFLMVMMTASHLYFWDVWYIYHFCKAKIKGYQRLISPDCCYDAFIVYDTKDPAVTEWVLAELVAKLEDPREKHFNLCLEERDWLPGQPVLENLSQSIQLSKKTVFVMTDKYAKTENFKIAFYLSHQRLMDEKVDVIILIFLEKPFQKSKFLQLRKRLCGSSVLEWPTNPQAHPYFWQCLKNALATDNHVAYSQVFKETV

[1] = Stability in human plasma assessed as parent compound remaining at 1 uM measured after 2 hrs by LC-MS/MS analysis
[2] = Stability in mouse plasma assessed as parent compound remaining at 1 uM measured after 2 hrs by LC-MS/MS analysis
in vitro [3] = conditions: mouse, microsomes
Description: Metabolic stability in mouse liver microsomes assessed as half life at 5 uM measured for 60 mins by LC-MS/MS analysis

physchem [4] = conditions: buffer, pH 7.4
in vitro [5] = conditions: human, microsomes
Description: Metabolic stability in human liver microsomes assessed as half life at 5 uM measured for 60 mins by LC-MS/MS analysis

physchem [6] = conditions: octanol/water
Description: 1-Octanol/phosphate buffer partition coefficient, logD of the compound measured after 4.5 hrs by HPLC-UV analysis

[7] = Apparent permeability across basolateral to apical side in human Caco-2 cells measured after 120 mins by LC-MS/MS analysis
[8] = Efflux ratio of apparent permeability across basolateral to apical side to apical to basolateral side in human Caco-2 cells measured after 120 mins by LC-MS/MS analysis
[9] = Apparent permeability across apical to basolateral side in human Caco-2 cells measured after 120 mins by LC-MS/MS analysis

Structure (SMILES) | IC50 (Toll-like receptor 9) | IC50 (Toll-like receptor 7) | also measured
COc1ccc(-c2cn3ccc(N4CCN(C(=O)C5CCCC5)CC4)cc3n2)c(OCc2ccccc2)c1 | 5130 nM |  | 
COc1ccc(-c2cn3ccc(N4CCN(C5CCCC5)CC4)cc3n2)c(O)c1 | 790 nM | 20800 nM | 
COc1ccc(-c2nc3cc(N4CCN(C5CCCC5)CC4)ccn3c2CN2CCCC2)c(OC)c1 | 39 nM |  | 
CC(C)[N+](C)(CCOC(=O)C1c2ccccc2Oc2ccccc21)C(C)C [PROPANTHELINE] |  |  | remaining at 2 h, 1 µM [1]: 0%; remaining at 2 h, 1 µM [2]: 0%
COc1ccc(-c2cn3ccc(NCCN4CCOCC4)cc3n2)c(OC)c1 | 49 nM | 3390 nM | 
COc1ccc(-c2nc3cc(N4CCN(C5CCCC5)CC4)ccn3c2NCc2ccccc2)c(OC)c1 | 526 nM | 4810 nM | 
COc1ccc(-c2cn3ccc(N4CCN(C5CCCC5)CC4)cc3n2)c(OC)c1 | 49 nM | 2340 nM | remaining at 2 h, 1 µM [1]: 64.9%; half-life at 1 h, 5 µM (in vitro [3]): 31.8 min; solubility kinetic at 24 h, 500 µM (physchem [4]): 10.2 µg/mL (≈ 25.1 µM); half-life at 1 h, 5 µM (in vitro [5]): 37.6 min; remaining at 2 h, 1 µM [2]: 93.4%; logD at 4.5 h (physchem [6]): 2.13
COc1ccc(-c2nc3cc(N4CCN(C(C)C)CC4)ccn3c2CN2CCCC2)c(OC)c1 | 15 nM |  | 
COc1ccc(-c2cn3ccc(N(C)C)cc3n2)c(OC)c1 | 766 nM | 3780 nM | 
COc1ccc(-c2cn3ccc(NCCCN4CCOCC4)cc3n2)c(OC)c1 | 69 nM |  | 
COc1ccc(-c2nc3cc(N4CCN(C5CCCC5)CC4)ccn3c2CN2CCCC2)c(OCc2ccccc2)c1 | 240 nM |  | 
COc1ccc(-c2cn3ccc(N4CCN(C(=O)C5CCCC5)CC4)cc3n2)c(O)c1 | 2120 nM |  | 
COc1ccc(-c2cn3ccc(N4CCN(C5CCCC5)CC4)cc3n2)cc1 | 71 nM | 3330 nM | 
COc1ccc(-c2cn3ccc(N4CCN(C(=O)c5ccccc5)CC4)cc3n2)c(OCc2ccccc2)c1 | 1060 nM | 24900 nM | 
COc1ccc(-c2cn3ccc(N4CCN(C5CCCC5)CC4)cc3n2)c(OCCCN2CCCC2)c1 | 17 nM |  | 
COc1ccc(-c2cn3ccc(N4CCNCC4)cc3n2)c(OCCCN2CCCC2)c1 | 94 nM |  | 
COc1ccc(-c2cn3ccc(NCCCN4CCOCC4)cc3n2)cc1 | 67 nM | 1060 nM | 
COc1ccc(-c2cn3ccc(N)cc3n2)cc1 | 2920 nM |  | 
COc1ccc(-c2cn3ccc(N4CCNCC4)cc3n2)cc1 | 803 nM | 559 nM | 
COc1ccc(-c2nc3ccccn3c2N)c(OC)c1 |  | > 30000 nM | 
COc1ccc(-c2cn3ccc(N4CCNCC4)cc3n2)c(OCc2ccccc2)c1 | 55 nM | 1130 nM | 

Structure (SMILES) | IC50 (Toll-like receptor 9) | IC50 (Toll-like receptor 7) | also measured
COc1ccc(-c2cn3ccc(N4CCN(C(=O)OC(C)(C)C)CC4)cc3n2)c(OCCCN2CCOCC2)c1 | 314 nM | 2950 nM | 
COc1ccc(-c2cn3ccc(N4CCN(C(=O)c5ccc(F)cc5)CC4)cc3n2)c(OCc2ccccc2)c1 | 2190 nM | 11000 nM | 
CC(C)NCC(O)COc1cccc2ccccc12 (stereo not drawn) [PROPRANOLOL] |  |  | Papp B→A at 2 h [7]: 17.3 ×10⁻⁶ cm/s; efflux ratio at 2 h [8]: 1.2; Papp A→B at 2 h [9]: 14.4 ×10⁻⁶ cm/s
COc1ccc(-c2cn3ccc(N4CCNCC4)cc3n2)c(OCCCN2CCOCC2)c1 | 35 nM | 1350 nM | 
COc1ccc(-c2cn3ccc(N4CCN(C(=O)OC(C)(C)C)CC4)cc3n2)c(OCCCN2CCCC2)c1 | 157 nM |  | 
COc1ccc(-c2nc3cc(N4CCN(C5CCCC5)CC4)ccn3c2CN2CCOCC2)c(OC)c1 | 142 nM | 2120 nM | 
COc1ccc(-c2nc3cc(N4CCN(C5CCCC5)CC4)ccn3c2NC2CCCCC2)c(OC)c1 | 2110 nM | 6700 nM | 
CCCSc1ccc2nc(NC(=O)OC)[nH]c2c1 [ALBENDAZOLE] |  |  | solubility kinetic at 24 h, 500 µM (physchem [4]): 2.2 µg/mL (≈ 8.29 µM)
COc1ccc(-c2cn3ccc(NCCCn4ccnc4)cc3n2)c(OC)c1 | 38 nM | 819 nM | 
COc1ccc(-c2cn3ccc(N4CCNCC4)cc3n2)c(OC)c1 | 46 nM |  | 
COc1ccc(-c2cn3ccc(N4CCN(C(=O)C5CCCC5)CC4)cc3n2)c(OC)c1 | 2910 nM | 8700 nM | 
COc1ccc(-c2cn3ccc(N4CCN(C5CCCC5)CC4)cc3n2)c(OCc2ccccc2)c1 | 153 nM | 5560 nM | 
COc1ccc(-c2cn3ccc(N4CCN(C(C)C)CC4)cc3n2)cc1 | 44 nM | 1230 nM | remaining at 2 h, 1 µM [1]: 60.4%; half-life at 1 h, 5 µM (in vitro [3]): 29.4 min; solubility kinetic at 24 h, 500 µM (physchem [4]): 46.1 µg/mL (≈ 131 µM); half-life at 1 h, 5 µM (in vitro [5]): 66 min; remaining at 2 h, 1 µM [2]: 92.8%; logD at 4.5 h (physchem [6]): 1.64
COc1ccc(-c2nc3cc(N4CCN(C(C)C)CC4)ccn3c2CN2CCOCC2)c(OC)c1 | 40 nM | 2490 nM | 
CN(C)c1ccn2cc(-c3ccccc3)nc2c1 | 2190 nM |  | 
COc1ccc(-c2cn3ccccc3n2)c(OC)c1 | 10400 nM |  | 
COc1ccc(-c2cn3ccc(N)cc3n2)c(OC)c1 | 1570 nM |  | 
COc1ccc(-c2nc3cc(N4CCN(C(=O)C5CCCC5)CC4)ccn3c2CN2CCCC2)c(OC)c1 | 1120 nM | 2550 nM | 
COc1ccc(-c2cn3ccc(N(C)C)cc3n2)cc1 | 1480 nM |  | 
COc1ccc(-c2nc3cc(N4CCN(C5CCCC5)CC4)ccn3c2CN2CCCC2)c(O)c1 | 245 nM | 24900 nM | 
